Target: Alpha-mannosidase (Canavalia ensiformis)
Assay: Inhibitory activity against Mannosidase in jack bean (Canavalia ensiformis)

| SMILES | IC50 [nM] |
| --- | --- |
| C[C@@H](O)[C@H]1NC[C@@H](O)[C@H]1O | 600 |
| OC[C@@H](O)[C@H]1NC[C@@H](O)[C@H]1O | 500 |
